Holding throughout (assay): relative viability (nuclei count vs DMSO), 5 days (fraction); higher = more cells survive
Compound in test [1]: CC1=CN2C(=O)C=C(N=C2C(=C1)C(C)NC3=CC=CC=C3)N4CCOCC4 [TGX 221] + CC(C)C[C@H](NC(=O)[C@H](Cc1ccccc1)NC(=O)c1cnccn1)B(O)O [Bortezomib] (partner 0.002 µM)
The essentials:
(§1)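 Lung cancer cell lines were seeded in 1536-well plates and dosed by pin tool the next day, with either a single drug or a fixed anchor-drug dose combined with five library-drug doses (not always all listed) spaced in √10 steps. Five days later, one step fixed the cells and stained their nuclei (final 0.05% Triton X-100, 1% formaldehyde, 1 ug/ml Hoechst), and nuclei were counted on 4× images. Relative viability is the nuclei count in treated wells divided by the count in vehicle wells, and each value is the median of duplicate plates.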

Compound in test [2]: CC1=CN2C(=O)C=C(N=C2C(=C1)C(C)NC3=CC=CC=C3)N4CCOCC4 [TGX 221] + CS(=O)(=O)CCNCc1ccc(-c2ccc3ncnc(Nc4ccc(OCc5cccc(F)c5)c(Cl)c4)c3c2)o1 [Lapatinib] (partner 2 µM)
Summed up:
as §1

Compound in test [3]: CC1=CN2C(=O)C=C(N=C2C(=C1)C(C)NC3=CC=CC=C3)N4CCOCC4 [TGX 221] + COc1cc2c(Oc3ccc(NC(=O)C4(C(=O)Nc5ccc(F)cc5)CC4)cc3F)ccnc2cc1OCCCN1CCOCC1 [Foretinib] (partner 0.25 µM)
Summed up: as §1

Compound in test [4]: C1=CC=C(C(=C1)C2=CC=C(C=C2)C3=CSC4=C3C(=C(C(=O)N4)C#N)O)O + CC(=O)c1c(C)c2cnc(Nc3ccc(N4CCNCC4)cn3)nc2n(C2CCCC2)c1=O [Palbociclib] (partner 0.5 µM)
The essentials: as §1

For NCI-H3122, the relative viability in test [1] (first compound 0.08 µM) worked out at 1.02; in test [1] (first compound 0.253 µM), 1.04; in test [1] (first compound 0.8 µM) it was 0.969; in test [1] (first compound 2.53 µM) it was 0.941; in test [1] (first compound 8 µM), 1.02; in test [2] (first compound 0.08 µM), 1.01. Also, the relative viability is 0.994 in test [2] (first compound 0.253 µM); 1.02 in test [2] (first compound 0.8 µM); 1.01 in test [2] (first compound 2.53 µM); 0.985 in test [2] (first compound 8 µM); 0.967 in test [3] (first compound 0.08 µM); 0.931 in test [3] (first compound 0.253 µM). Besides, the relative viability in test [3] (first compound 0.8 µM) came to 0.957; in test [3] (first compound 2.53 µM), 0.949; in test [3] (first compound 8 µM), 1.01; in test [4] (first compound 0.08 µM), 0.203; in test [4] (first compound 0.253 µM), 0.214; in test [4] (first compound 0.8 µM) it was 0.186. Further, the relative viability in test [4] (first compound 2.53 µM) amounted to 0.21; in test [4] (first compound 8 µM) it was 0.231.
PC-3 [JPC-3]: the relative viability worked out at 0.759 in test [1] (first compound 0.08 µM); 0.73 in test [1] (first compound 0.253 µM); 0.883 in test [1] (first compound 0.8 µM); 0.735 in test [1] (first compound 2.53 µM); 0.851 in test [1] (first compound 8 µM); 0.448 in test [2] (first compound 0.08 µM). For the same cell line, the relative viability in test [2] (first compound 0.253 µM) was determined as 0.46; in test [2] (first compound 0.8 µM), 0.445; in test [2] (first compound 2.53 µM), 0.431; in test [2] (first compound 8 µM), 0.429; in test [3] (first compound 0.08 µM), 1; in test [3] (first compound 0.253 µM), 1.03. The relative viability in test [3] (first compound 0.8 µM) is 1.05; in test [3] (first compound 2.53 µM), 0.947; in test [3] (first compound 8 µM), 0.972; in test [4] (first compound 0.08 µM) it was 0.496; in test [4] (first compound 0.253 µM) it was 0.599; in test [4] (first compound 0.8 µM), 0.535. Further, the results for the relative viability in test [4] (first compound 2.53 µM) and in test [4] (first compound 8 µM) were 0.601 and 0.577, respectively.
As to PC-14, the relative viability in test [1] (first compound 0.08 µM) turned out to be 0.895; in test [1] (first compound 0.253 µM), 0.89; in test [1] (first compound 0.8 µM), 0.828; in test [1] (first compound 2.53 µM), 0.804; in test [1] (first compound 8 µM) it was 0.874; in test [2] (first compound 0.08 µM) it was 0.334. The relative viability came to 0.269 in test [2] (first compound 0.253 µM); 0.289 in test [2] (first compound 0.8 µM); 0.28 in test [2] (first compound 2.53 µM); 0.26 in test [2] (first compound 8 µM); 1.04 in test [3] (first compound 0.08 µM); 0.953 in test [3] (first compound 0.253 µM). Besides, the relative viability in test [3] (first compound 0.8 µM) was 0.934; in test [3] (first compound 2.53 µM) it was 1.06; in test [3] (first compound 8 µM) it was 0.858; in test [4] (first compound 0.08 µM) it was 0.496; in test [4] (first compound 0.253 µM) it was 0.56; in test [4] (first compound 0.8 µM), 0.537. Besides, the values for the relative viability in test [4] (first compound 2.53 µM) and in test [4] (first compound 8 µM) were 0.574 and 0.34, respectively.
For the cell line RERF-LC-KJ, the relative viability in test [1] (first compound 0.08 µM) was 0.908; in test [1] (first compound 0.253 µM) it was 1.06; in test [1] (first compound 0.8 µM) it was 1.27; in test [1] (first compound 2.53 µM), 0.961; in test [1] (first compound 8 µM), 1.01; in test [2] (first compound 0.08 µM), 0.837. Further, the relative viability worked out at 0.824 in test [2] (first compound 0.253 µM); 0.749 in test [2] (first compound 0.8 µM); 0.829 in test [2] (first compound 2.53 µM); 0.84 in test [2] (first compound 8 µM); 0.87 in test [3] (first compound 0.08 µM); 0.879 in test [3] (first compound 0.253 µM). The relative viability in test [3] (first compound 0.8 µM) was determined as 0.964; in test [3] (first compound 2.53 µM) it was 0.825; in test [3] (first compound 8 µM), 0.757; in test [4] (first compound 0.08 µM), 1.01; in test [4] (first compound 0.253 µM) it was 1.18; in test [4] (first compound 0.8 µM), 1.11. The figures for the relative viability in test [4] (first compound 2.53 µM) and in test [4] (first compound 8 µM) were 1.29 and 1.04, respectively.
Consider SK-LU-1, for which the relative viability was determined as 1.04 in test [1] (first compound 0.08 µM); 1.09 in test [1] (first compound 0.253 µM); 1.04 in test [1] (first compound 0.8 µM); 1.38 in test [1] (first compound 2.53 µM); 1.11 in test [1] (first compound 8 µM); 0.883 in test [2] (first compound 0.08 µM). Further, the relative viability in test [2] (first compound 0.253 µM) is 0.951; in test [2] (first compound 0.8 µM), 0.754; in test [2] (first compound 2.53 µM), 0.898; in test [2] (first compound 8 µM), 0.682; in test [3] (first compound 0.08 µM), 0.808; in test [3] (first compound 0.253 µM), 0.703. Besides, the relative viability in test [3] (first compound 0.8 µM) came to 0.768; in test [3] (first compound 2.53 µM) it was 0.63; in test [3] (first compound 8 µM) it was 0.657; in test [4] (first compound 0.08 µM), 0.35; in test [4] (first compound 0.253 µM) it was 0.37; in test [4] (first compound 0.8 µM) it was 0.378. Further, the figures for the relative viability in test [4] (first compound 2.53 µM) and in test [4] (first compound 8 µM) were 0.389 and 0.355, respectively.
SW 1573: the relative viability was 0.91 in test [1] (first compound 0.08 µM); 1.09 in test [1] (first compound 0.253 µM); 1.04 in test [1] (first compound 0.8 µM); 0.945 in test [1] (first compound 2.53 µM); 0.839 in test [1] (first compound 8 µM); 1.01 in test [2] (first compound 0.08 µM). Also, the relative viability in test [2] (first compound 0.253 µM) came to 1.01; in test [2] (first compound 0.8 µM) it was 1.1; in test [2] (first compound 2.53 µM), 0.852; in test [2] (first compound 8 µM) it was 1.12; in test [3] (first compound 0.08 µM), 0.889; in test [3] (first compound 0.253 µM) it was 0.881. Also, the relative viability came to 0.975 in test [3] (first compound 0.8 µM); 0.822 in test [3] (first compound 2.53 µM); 0.851 in test [3] (first compound 8 µM); 0.366 in test [4] (first compound 0.08 µM); 0.378 in test [4] (first compound 0.253 µM); 0.447 in test [4] (first compound 0.8 µM). The relative viability in test [4] (first compound 2.53 µM) worked out at 0.396; in test [4] (first compound 8 µM), 0.321.
For the cell line UMC-11, the relative viability in test [1] (first compound 0.08 µM) was 0.873; in test [1] (first compound 0.253 µM) it was 0.772; in test [1] (first compound 0.8 µM) it was 0.823; in test [1] (first compound 2.53 µM), 0.745; in test [1] (first compound 8 µM), 0.796; in test [2] (first compound 0.08 µM), 0.879. Further, the relative viability is 0.854 in test [2] (first compound 0.253 µM); 0.901 in test [2] (first compound 0.8 µM); 0.909 in test [2] (first compound 2.53 µM); 1.18 in test [2] (first compound 8 µM); 0.934 in test [3] (first compound 0.08 µM); 0.932 in test [3] (first compound 0.253 µM). The relative viability in test [3] (first compound 0.8 µM) was 1; in test [3] (first compound 2.53 µM) it was 1.06; in test [3] (first compound 8 µM), 1.03; in test [4] (first compound 0.08 µM) it was 0.369; in test [4] (first compound 0.253 µM), 0.374; in test [4] (first compound 0.8 µM), 0.336. Besides, the relative viability in test [4] (first compound 2.53 µM) is 0.345; in test [4] (first compound 8 µM), 0.366.

Source of the values: the supplement of paper PMC10307832.
